Experimental data published in US7879853B2, “4,6-disubstituted pyrimidines and their use as protein kinase inhibitors” (Bayer Schering Pharma AG, priority 2004, dated 2011).

Q: For `CC(C)(C)OC(=O)Nc1ccc(C(=O)Nc2cccc(Nc3cc(-c4cccc5c4oc4ccccc45)ncn3)c2)cc1` [Compound 30, tert-Butyl N-{4-[3-(6-Dibenzofuran-4-yl-pyrimidin-4-ylamino)-phenylcarbamoyl]-phenyl}-carbamate], which melting point is on record?
A: Its melting point is 214 °C.

Q: For `CC(C)(C)c1ccc(C(=O)Nc2ccc(Nc3cc(-c4cccc5c4oc4ccccc45)ncn3)cc2)cc1` [Compound 8, 4-tert-Butyl-N-[4-(6-dibenzofuran-4-yl-pyrimidin-4-ylamino)-phenyl]-benzamide], which melting point is on record?
A: The melting point was 261 to 263 °C.

Q: Which melting point does the source give for `O=C(Nc1ccc(Nc2cc(-c3cccc4c3oc3ccccc34)ncn2)cc1)c1ccccc1` [Compound 7, N-[4-(6-Dibenzofuran-4-yl-pyrimidin-4-ylamino)-phenyl]-benzamide] here?
A: Its melting point is 323 to 325 °C.

Q: Which melting point does the source give for `CN(C)c1ccc(C(=O)Nc2ccc(Nc3cc(-c4cccc5c4oc4ccccc45)ncn3)cc2)cc1` [Compound 2, N-[4-(6-Dibenzofuran-4-yl-pyrimidin-4-ylamino)-phenyl]-4-dimethylamino-benzamide] here?
A: Its melting point is 285 to 300 °C.

Q: With `Nc1ccc(CC(=O)Nc2ccc(Nc3cc(-c4cccc5c4oc4ccccc45)ncn3)cc2)cc1.O=C(O)C(F)(F)F` as the compound, how does the melting point read?
A: Its melting point is 125 to 130 °C.

Q: For `CC(C)(C)OC(=O)Nc1ccc(CC(=O)Nc2ccc(Nc3cc(-c4cccc5c4oc4ccccc45)ncn3)cc2)cc1` [Compound 21, tert-Butyl N-(4-{[4-(6-dibenzofuran-4-yl-pyrimidin-4-ylamino)-phenylcarbamoyl]-methyl}-phenyl)-carbamate], which melting point is on record?
A: The melting point was greater than 320 °C.

Q: With `CN1CCN(c2ccc(C(=O)Nc3ccc(Nc4cc(-c5cccc6c5oc5ccccc56)ncn4)cc3)cc2)CC1` [Compound 14, N-[4-(6-Dibenzofuran-4-yl-pyrimidin-4-ylamino)-phenyl]-4-(4-methyl-piperazin-1-yl)-benzamide] as the compound, how does the melting point read?
A: The melting point was 304 to 319 °C.

Q: Which melting point does the source give for `NCc1ccc(CC(=O)Nc2ccc(Nc3cc(-c4cccc5c4oc4ccccc45)ncn3)cc2)cc1.O=C(O)C(F)(F)F` [Compound 66, 2-(4-Aminomethyl-phenyl)-N-[4-(6-dibenzofuran-4-yl-pyrimidin-4-ylamino)-phenyl]-acetamide trifluoroacetate] here?
A: Its melting point is 251 to 255 °C.

Q: With `CC(C)(C)OC(=O)NCc1cccc(C(=O)Nc2cccc(Nc3cc(-c4cccc5c4oc4ccccc45)ncn3)c2)c1` [Compound 29, tert-Butyl N-{3-[3-(6-Dibenzofuran-4-yl-pyrimidin-4-ylamino)-phenylcarbamoyl]-benzyl}-carbamate] as the compound, how does the melting point read?
A: The melting point was 216 to 219 °C.

Q: Which melting point does the source give for `CC(C)(C)OC(=O)NCCc1ccc(C(=O)Nc2ccc(Nc3cc(-c4cccc5c4oc4ccccc45)ncn3)cc2)cc1` [Compound 23, tert-Butyl N-(2-{4-[4-(6-Dibenzofurane-4-yl-pyrimidin-4-ylamino)-phenylcarbamoyl]phenyl}-ethyl)-carbamate] here?
A: The melting point was greater than 250 °C.

Q: For `CC(C)(C)OC(=O)NCc1ccnc(C(=O)Nc2ccc(Nc3cc(-c4cccc5c4oc4ccccc45)ncn3)cc2)c1` [Compound 24, tert-Butyl N-{2-[4-(6-Dibenzofuran-4-yl-pyrimidin-4-ylamino)-phenylcarbamoyl]-pyridin-4-ylmethyl}-carbamate], which melting point is on record?
A: Its melting point is 245 °C.

Q: With `CC(C)(C)OC(=O)Nc1cccc(C(=O)Nc2cccc(Nc3cc(-c4cccc5c4oc4ccccc45)ncn3)c2)c1` [Compound 28, tert-Butyl {3-[3-(6-dibenzofuran-4-yl-pyrimidin-4-ylamino)-phenylcarbamoyl]-phenyl}-carbamate] as the compound, how does the melting point read?
A: The melting point was 160 to 163 °C.

Q: For `CC(C)(C)OC(=O)Nc1ccccc1C(=O)Nc1ccc(Nc2cc(-c3cccc4c3oc3ccccc34)ncn2)cc1` [Compound 18, tert-Butyl N-{2-[4-(6-Dibenzofuran-4-yl-pyrimidin-4-ylamino)-phenylcarbamoyl]-phenyl}-carbamate], which melting point is on record?
A: Its melting point is greater than 340 °C.

Q: For `O=C(Nc1ccc(Nc2cc(-c3cccc4c3oc3ccccc34)ncn2)cc1)c1ccc(CN2CCOCC2)cc1` [Compound 13, N-[4-(6-Dibenzofuran-4-yl-pyrimidin-4-ylamino)-phenyl]-4-morpholin-4-ylmethyl-benzamide], which melting point is on record?
A: The melting point was greater than 250 °C.

Q: With `CC(C)(C)OC(=O)NCCc1ccc(C(=O)Nc2cccc(Nc3cc(-c4cccc5c4oc4ccccc45)ncn3)c2)cc1` [Compound 26, tert-Butyl N-(2-{4-[3-(6-dibenzofuran-4-yl-pyrimidin-4-ylamino)-phenylcarbamoyl]-phenyl}-ethyl)-carbamate] as the compound, how does the melting point read?
A: Its melting point is 239 to 241 °C.

Q: With `NCCc1ccc(C(=O)Nc2ccc(Nc3cc(-c4cccc5c4oc4ccccc45)ncn3)cc2)cc1.O=C(O)C(F)(F)F` [Compound 55, 4-(2-Amino-ethyl)-N-[4-(6-dibenzofuran-4-yl-pyrimidin-4-ylamino)-phenyl]-benzamide trifluoroacetate] as the compound, how does the melting point read?
A: The melting point was 202 °C.

Q: Which melting point does the source give for `NCCc1ccc(C(=O)Nc2cccc(Nc3cc(-c4cccc5c4oc4ccccc45)ncn3)c2)cc1.O=C(O)C(F)(F)F` [Compound 58, 4-(2-Amino-ethyl)-N-[3-(6-dibenzofuran-4-yl-pyrimidin-4-ylamino)-phenyl]-benzamide trifluoroacetate] here?
A: Its melting point is 87 to 90 °C.

Q: With `NCC(C(=O)Nc1cccc(Nc2cc(-c3cccc4c3oc3ccccc34)ncn2)c1)c1ccc(Cl)c(Cl)c1.O=C(O)C(F)(F)F` (stereo not drawn) [Compound 76, 3-Amino-N-[3-(6-dibenzofuran-4-yl-pyrimidin-4-ylamino)-phenyl]-2-(3,4-dichlorophenyl)-propionamide trifluoroacetat] as the compound, how does the melting point read?
A: Its melting point is 138 to 145 °C.

Q: Which melting point does the source give for `Nc1cccc(C(=O)Nc2cccc(Nc3cc(-c4cccc5c4oc4ccccc45)ncn3)c2)c1.O=C(O)C(F)(F)F` here?
A: The melting point was 150 to 153 °C.

Q: Which melting point does the source give for `CN1CCN(Cc2ccc(C(=O)Nc3ccc(Nc4cc(-c5cccc6c5oc5ccccc56)ncn4)cc3)cc2)CC1` [Compound 3, N-[4-(6-Dibenzofuran-4-yl-pyrimidin-4-ylamino)-phenyl]-4-(4-methyl-piperazin-1-ylmethyl)-benzamide] here?
A: The melting point was 270 to 274 °C.

Q: With `CC(C)(C)OC(=O)NCc1cccc(C(=O)Nc2ccc(Nc3cc(-c4cccc5c4oc4ccccc45)ncn3)cc2)c1` [Compound 22, tert-Butyl N-{3-[4-(6-Dibenzofuran-4-yl-pyrimidin-4-ylamino)-phenylcarbamoyl]-benzyl}-carbamate] as the compound, how does the melting point read?
A: Its melting point is 237 °C.

Q: With `O=C(Nc1ccc(Nc2cc(-c3cccc4c3oc3ccccc34)ncn2)cc1)c1ccc(N2CCOCC2)nc1` [Compound 15, N-[4-(6-Dibenzofuran-4-yl-pyrimidin-4-ylamino)-phenyl]-6-morpholin-4-yl-nicotinamide] as the compound, how does the melting point read?
A: Its melting point is 310 to 312 °C.

Q: With `CC(C)(C)OC(=O)NCc1ccc(C(=O)Nc2cccc(Nc3cc(-c4cccc5c4oc4ccccc45)ncn3)c2)cc1` [Compound 25, tert-Butyl {4-[3-(6-dibenzofuran-4-yl-pyrimidin-4-ylamino)-phenylcarbamoyl]-benzyl}-carbamate] as the compound, how does the melting point read?
A: Its melting point is 233 to 236 °C.

Q: With `CC(C)(C)OC(=O)N1CCCC(c2ccc(C(=O)Nc3ccc(Nc4cc(-c5cccc6c5oc5ccccc56)ncn4)cc3)cc2)C1` (stereo not drawn) [Compound 20, tert-Butyl 3-{4-[4-(6-Dibenzofuran-4-yl-pyrimidin-4-ylamino)-phenylcarbamoyl]-phenyl}-piperidin-1-carboxylate] as the compound, how does the melting point read?
A: The melting point was 259 to 261 °C.

Q: For `Nc1ccccc1C(=O)Nc1ccc(Nc2cc(-c3cccc4c3oc3ccccc34)ncn2)cc1.O=C(O)C(F)(F)F` [Compound 50, 2-Amino-N-[4-(6-dibenzofuran-4-yl-pyrimidin-4-ylamino)-phenyl]-benzamide trifluoroacetate], which melting point is on record?
A: Its melting point is 136 to 138 °C.

Q: For `CC(C)(C)OC(=O)NCc1ccc(C(=O)Nc2ccc(Nc3cc(-c4cccc5c4oc4ccccc45)ncn3)cc2)cc1` [Compound 17, tert-Butyl N-{4-[4-(6-dibenzofuran-4-yl-pyrimidin-4-ylamino)-phenylcarbamoyl]-benzyl}-carbamate], which melting point is on record?
A: The melting point was 311 to 321 °C.

Q: With `NCc1ccc(C(=O)Nc2ccc(Nc3cc(-c4cccc5c4oc4ccccc45)ncn3)cc2)cn1.O=C(O)C(F)(F)F` [Compound 64, 6-Aminomethyl-N-[4-(6-dibenzofuran-4-yl-pyrimidin-4-ylamino)-phenyl]-nicotinamide trifluoroacetate] as the compound, how does the melting point read?
A: The melting point was 145 to 150 °C.

Q: With `NCc1cc(C(=O)Nc2ccc(Nc3cc(-c4cccc5c4oc4ccccc45)ncn3)cc2)ccn1.O=C(O)C(F)(F)F` [Compound 65, 2-Aminomethyl-N-[4-(6-dibenzofuran-4-yl-pyrimidin-4-ylamino)-phenyl]-isonicotinamide trifluoroacetate] as the compound, how does the melting point read?
A: Its melting point is 248 to 250 °C.

Q: For `CN(C)c1cccc(C(=O)Nc2cccc(Nc3cc(-c4cccc5c4oc4ccccc45)ncn3)c2)c1` [Compound 48, N-[3-(6-Dibenzofuran-4-yl-pyrimidin-4-ylamino)-phenyl]-3-dimethylamino-benzamide], which melting point is on record?
A: Its melting point is 245 to 251 °C.

Q: With `NCC(C(=O)Nc1ccc(Nc2cc(-c3cccc4c3oc3ccccc34)ncn2)cc1)c1ccc(Cl)c(Cl)c1.O=C(O)C(F)(F)F` (stereo not drawn) [Compound 75, 3-Amino-N-[4-(6-dibenzofuran-4-yl-pyrimidin-4-ylamino)-phenyl]-2-(3,4-dichloro-phenyl)-propionamide trifluoroacetate] as the compound, how does the melting point read?
A: Its melting point is 195 to 205 °C.

Q: With `CN(C)c1cccc(C(=O)Nc2ccc(Nc3cc(-c4cccc5c4oc4ccccc45)ncn3)cc2)c1` [Compound 10, N-[4-(6-Dibenzofuran-4-yl-pyrimidin-4-ylamino)-phenyl]-3-dimethylamino-benzamide] as the compound, how does the melting point read?
A: The melting point was 225 to 232 °C.

Q: With `COCCC(CCOC)c1cccc(C(=O)Nc2ccc(Nc3cc(-c4cccc5c4oc4ccccc45)ncn3)cc2)c1` [Compound 16, N-[4-(6-Dibenzofuran-4-yl-pyrimidin-4-ylamino)-phenyl]-3-[3-methoxy-1-(2-methoxyethyl)-propyl]-benzamide] as the compound, how does the melting point read?
A: Its melting point is 186 to 188 °C.

Q: With `CN(C)c1ccccc1C(=O)Nc1ccc(Nc2cc(-c3cccc4c3oc3ccccc34)ncn2)cc1` [Compound 5, N-[4-(6-Dibenzofuran-4-yl-pyrimidin-4-ylamino)-phenyl]-2-dimethylamino-benzamide] as the compound, how does the melting point read?
A: The melting point was 246 to 249 °C.
